How the values were obtained:
[1] = Phase II clinical trial of RO4588161: premature withdrawal for safety reasons; assay type: in vivo, human; conditions: among the 104 evaluable patients
Excerpt: A screening period (time from the first screening assessment to the first administration of test drug) of 35 days preceded the treatment portion of the trial (FIG. 1). The HCV genotype and HCV RNA titer of each patient was confirmed during the screening period and only treatment-naïve patients with HCV genotype-1 and HCV RNA titer ≧50,000 IU/mL were eligible for enrollment.
One hundred and seven male and female patients between 18 and 66 years of age were enrolled into the study.

HCV = conditions: monotherapy; cited from earlier work

Row | SMILES | patients who prematurely withdrew for safety reasons from treatment [1] | effect on serum levels of HCV-RNA (HCV) | patients with serum amino transferase levels reduced to normal (HCV)
1 | CC(C)C(=O)OC[C@@]1(N=[N+]=[N-])O[C@@H](n2ccc(N)nc2=O)[C@H](OC(=O)C(C)C)[C@@H]1OC(=O)C(C)C [RO4588161, Isobutyric acid (2R,3S,4R,5R)-5-(4-amino-2-oxo-2H-pyrimidin-1-yl)-2-azido-3,4-bis-isobutyryloxy-tetrahydro-furan-2-ylmethyl ester] | 43 patients | – | –
2 | NC(=O)c1ncn([C@@H]2O[C@H](CO)[C@@H](O)[C@H]2O)n1 [ribavirin, 1-((2R,3R,4S,5R)-3,4-Dihydroxy-5-hydroxymethyl-tetrahydro-furan-2-yl)-1H-[1,2,4]triazole-3-carboxylic acid amide] | 5 patients | does not lower serum levels of HCV-RNA | 40%

Source: patent publication US20110312513A1, “BIOMARKERS FOR PREDICTING SUSTAINED RESPONSE TO HCV TREATMENT” (ROCHE MOLECULAR SYSTEMS, INC., priority 2009, published 2011)
